Dmax and DC50 data for 12 compounds are collected here from patent US11986532B2 (Arvinas Operations, Inc., priority 2021, dated 2024).

What is called Dmax is the largest share of the target that was removed. What is called DC50 is the concentration giving 50% degradation.

Read-outs that look alike come from different tables or passages of the source.

The assay has as its target T1, BCL6 (Homo sapiens, UniProt P41182).
T1 construct: endogenous in cells; host or cells: T47D breast cancer epithelial cells
Nature of the assay: Immunofluorescence protocol for high content imaging of BCL6 (degradation) in T47D cells, 3 days compound treatment. Type of assay: cell-based. The note with it: for Dmax: read-out: Mean Dmax (%)** category; for DC50: read-out: Mean DC50 (nM)* category. The method, boiled down:
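T47D cells in RPMI1640-10% FBS were treated with an 11-point 3-fold dilution series (final top 0.1 or 1 μM) for 3 days at 37° C. After PFA fixation and Triton permeabilization, cells were immunostained with rabbit anti-BCL6 (1:300, overnight 4° C), Alexa-488 secondary, CellMask-647 and Hoechst, then imaged at 10×, 4 fields/well.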

[1] abbreviates: T47D cells, 3 days compound treatment.

For the compound `CNC(=O)COc1cc2cc(Nc3cc(N4CCC(CN5CCC6(CC5)CN(c5ccc7c(c5F)CN(C5CCC(=O)NC5=O)C7=O)C6(C)C)CC4)ncc3Cl)ccc2n(C(C)C)c1=O` (stereo not drawn) [Compound 229, 2-{[6-({5-chloro-2-[4-({2-[2-(2,6-dioxopiperidin-3-yl)-4-fluoro-1-oxo-2,3-dihydro-1H-isoindol-5-yl]-1,1-dimethyl-2,7-diazaspiro[3.5]nonan-7-yl}methyl)piperidin-1-yl]pyridin-4-yl}amino)-2-oxo-1-(propan-2-yl)-1,2-dihydroquinolin-3-yl]oxy}-N-methylacetamide], the DC50 is < 10 nM. Moreover, under “T47D”, the Dmax is ≥ 70%.

On to `CNC(=O)COc1cc2cc(Nc3nc(N4CCC(O[C@H]5C[C@H](N6CCC(c7cc8c(cc7OC)C(=O)N(C7CCC(=O)NC7=O)C8)CC6)C5)CC4)ncc3Cl)ccc2n(C(C)C)c1=O` (stereo partly drawn) [Compound 348, 2-({6-[(5-chloro-2-{4-[(1r,3r)-3-{4-[2-(2,6-dioxopiperidin-3-yl)-6-methoxy-1-oxo-2,3-dihydro-1H-isoindol-5-yl]piperidin-1-yl}cyclobutoxy]piperidin-1-yl}pyrimidin-4-yl)amino]-2-oxo-1-(propan-2-yl)-1,2-dihydroquinolin-3-yl}oxy)-N-methylacetamide], for which the DC50 is < 10 nM. The Dmax (T47D) is ≥ 70%.

In the case of `CNC(=O)COc1cc2cc(Nc3nc(N4CCC(CN5CCC6(CN(c7cccc8c7CN(C7CCC(=O)NC7=O)C8=O)C6)C(F)C5)CC4)ncc3Cl)ccc2n(C(C)C)c1=O` (stereo not drawn) [Compound 326, 2-{[6-({5-chloro-2-[4-({2-[2-(2,6-dioxopiperidin-3-yl)-1-oxo-2,3-dihydro-1H-isoindol-4-yl]-5-fluoro-2,7-diazaspiro[3.5]nonan-7-yl}methyl)piperidin-1-yl]pyrimidin-4-yl}amino)-2-oxo-1-(propan-2-yl)-1,2-dihydroquinolin-3-yl]oxy}-N-methylacetamide], the DC50 is < 10 nM. Besides, the Dmax (T47D) was ≥ 70%.

Turning to `CNC(=O)COc1cc2cc(Nc3nc(N4CCC(O[C@H]5C[C@H](N6CC=C(c7ccc8c(c7)CN(C7CCC(=O)NC7=O)C8=O)CC6)C5)CC4)ncc3Cl)ccc2n(C(C)C)c1=O` (stereo partly drawn) [Compound 323, 2-({6-[(5-chloro-2-{4-[(1r,3r)-3-{4-[2-(2,6-dioxopiperidin-3-yl)-1-oxo-2,3-dihydro-1H-isoindol-5-yl]-1,2,3,6-tetrahydropyridin-1-yl}cyclobutoxy]piperidin-1-yl}pyrimidin-4-yl)amino]-2-oxo-1-(propan-2-yl)-1,2-dihydroquinolin-3-yl}oxy)-N-methylacetamide], the DC50 was < 10 nM. Further, the Dmax (T47D) lay within 50 to 70%.

Regarding `CNC(=O)COc1cc2cc(Nc3nc(N4CCC(F)(CN5CC6(CCN(c7cccc8c7CN(C7CCC(=O)NC7=O)C8=O)CC6)C5)CC4)ncc3Cl)ccc2n(C(C)C)c1=O` (stereo not drawn) [Compound 99], under setting [1], the DC50 is < 10 nM and the maximal degradation (Dmax) fell in the range of 50 to 70%.

Take `CNC(=O)COc1cc2c(F)c(Nc3nc(N4CCC(O[C@H]5C[C@H](N6CCC(c7ccc8c(c7C)C(=O)N(C7CCC(=O)NC7=O)C8=O)CC6)C5)CC4)ncc3Cl)ccc2n(C(C)C)c1=O` (stereo partly drawn) [Compound 419, 2-({6-[(5-chloro-2-{4-[(1r,3r)-3-{4-[2-(2,6-dioxopiperidin-3-yl)-4-methyl-1,3-dioxo-2,3-dihydro-1H-isoindol-5-yl]piperidin-1-yl}cyclobutoxy]piperidin-1-yl}pyrimidin-4-yl)amino]-5-fluoro-2-oxo-1-(propan-2-yl)-1,2-dihydroquinolin-3-yl}oxy)-N-methylacetamide]: the DC50 is < 10 nM. For the same compound, the Dmax (T47D) was ≥ 70%.

For the compound `CNC(=O)COc1cc2cc(Nc3nc(N4CCC5(CCN(CC6(F)CCN(c7cccc8c7C(=O)N(C7CCC(=O)NC7=O)C8=O)CC6)CC5)CC4)ncc3Cl)ccc2n(C(C)C)c1=O` (stereo not drawn) [Compound 63, 2-{[6-({5-chloro-2-[9-({1-[2-(2,6-dioxopiperidin-3-yl)-1,3-dioxo-2,3-dihydro-1H-isoindol-4-yl]-4-fluoropiperidin-4-yl}methyl)-3,9-diazaspiro[5.5]undecan-3-yl]pyrimidin-4-yl}amino)-2-oxo-1-(propan-2-yl)-1,2-dihydroquinolin-3-yl]oxy}-N-methylacetamide], under setting [1], the 50% degradation concentration (DC50) lay within 10 to 50 nM and the Dmax fell in the range of 50 to 70%.

On to `CC(C)n1c(=O)c(OCC(=O)N(C)O)cc2cc(Nc3nc(N4CCC(O[C@H]5C[C@H](N6CCC(c7ccc8c(c7F)CN(C7CCC(=O)NC7=O)C8=O)CC6)C5)CC4)ncc3Cl)ccc21` (stereo partly drawn) [Compound 265, 2-({6-[(5-chloro-2-{4-[(1r,3r)-3-{4-[2-(2,6-dioxopiperidin-3-yl)-4-fluoro-1-oxo-2,3-dihydro-1H-isoindol-5-yl]piperidin-1-yl}cyclobutoxy]piperidin-1-yl}pyrimidin-4-yl)amino]-2-oxo-1-(propan-2-yl)-1,2-dihydroquinolin-3-yl}oxy)-N-hydroxy-N-methylacetamide], for which the 50% degradation concentration (DC50) was < 10 nM. Moreover, the Dmax (T47D) is ≥ 70%.

In the case of `CNC(=O)COc1cc2cc(Nc3nc(N4CCC(N(C)C5CCC6(CC5)CN(c5ccc7c(c5)C(=O)N(C5CCC(=O)NC5=O)C7=O)C6)CC4)ncc3Cl)ccc2n(C(C)C)c1=O` (stereo not drawn) [Compound 308, 2-{[6-({5-chloro-2-[4-({2-[2-(2,6-dioxopiperidin-3-yl)-1,3-dioxo-2,3-dihydro-1H-isoindol-5-yl]-2-azaspiro[3.5]nonan-7-yl} (methyl)amino)piperidin-1-yl]pyrimidin-4-yl}amino)-2-oxo-1-(propan-2-yl)-1,2-dihydroquinolin-3-yl]oxy}-N-methylacetamide], the DC50 is < 10 nM. Besides, the Dmax (T47D) was in the range of 50 to 70%.

As to `CNC(=O)COc1cc2cc(Nc3nc(N4CCN(CC5CCC6(CC5)CN(c5c(OC)ccc7c5C(=O)N(C5CCC(=O)NC5=O)C7=O)C6)CC4)ncc3Cl)ccc2n(C(C)C)c1=O` (stereo not drawn) [Compound 9, 2-{[6-({5-chloro-2-[4-({2-[2-(2,6-dioxopiperidin-3-yl)-5-methoxy-1,3-dioxo-2,3-dihydro-1H-isoindol-4-yl]-2-azaspiro[3.5]nonan-7-yl}methyl)piperazin-1-yl]pyrimidin-4-yl}amino)-2-oxo-1-(propan-2-yl)-1,2-dihydroquinolin-3-yl]oxy}-N-methylacetamide], under setting [1], the DC50 is < 10 nM and the greatest degradation seen (Dmax) was < 50%.

For `CNC(=O)COc1cc2cc(Nc3nc(N4CCC(O[C@H]5C[C@H](N6CCC(c7ccc8c(c7F)CN(C7CCC(=O)NC7=O)C8=O)CC6)C5)CC4)ncc3Cl)ccc2n(C2CCCCC2)c1=O` (stereo partly drawn) [Compound 411, 2-({6-[(5-chloro-2-{4-[(1r,3r)-3-{4-[2-(2,6-dioxopiperidin-3-yl)-4-fluoro-1-oxo-2,3-dihydro-1H-isoindol-5-yl]piperidin-1-yl}cyclobutoxy]piperidin-1-yl}pyrimidin-4-yl)amino]-1-cyclohexyl-2-oxo-1,2-dihydroquinolin-3-yl}oxy)-N-methylacetamide], the 50% degradation concentration (DC50) is < 10 nM. For the setting “T47D”, the greatest degradation seen (Dmax) is ≥ 70%.

On to `CNC(=O)COc1cc2cc(Nc3nc(N4CCC(O[C@H]5C[C@H](N6CCN(c7ccc8c(c7Cl)CN([C@@H]7CCC(=O)NC7=O)C8=O)[C@H](C)C6)C5)CC4)ncc3Cl)ccc2n(C(C)C)c1=O` [Compound 268, 2-({6-[(5-chloro-2-{4-[(1r,3r)-3-[(3R)-4-{4-chloro-2-[(3R)-2,6-dioxopiperidin-3-yl]-1-oxo-3H-isoindol-5-yl}-3-methylpiperazin-1-yl]cyclobutoxy]piperidin-1-yl}pyrimidin-4-yl)amino]-1-isopropyl-2-oxoquinolin-3-yl}oxy)-N-methylacetamide], for which the DC50 is < 10 nM. Further, for the setting “T47D”, the maximal degradation (Dmax) is ≥ 70%.
